Experimental data: patent US20260256792A1, “TREATMENT OF CHRONIC SPONTANEOUS URTICARIA BY ADMINISTERING (R)-2-[3-[4-AMINO-3-(2-FLUORO-4-PHENOXY-PHENYL)PYRAZOLO[3,4-D]PYRIMIDIN-1-YL]PIPERIDINE-1-CARBONYL]-4-METHYL-4-[4-(OXETAN-3-YL)PIPERAZIN-1-YL]PENT-2-ENENITRILE” (priority 2023, published 2026)

System: moderate-to-severe chronic spontaneous urticaria (CSU)
Assay: Phase 2 CSU study: urticaria activity score over 7 days (UAS7)
Assay type: in vivo, human
Settings: ITT
From the text: The study comprises a 12 week, randomized, double-blind, placebo-controlled, multi-center, dose-ranging efficacy and safety phase, followed by a 40 week open label extension (OLE) phase (see FIG. 1). The study consists of three phases and an optional OLE phase. […] Clinically, CSU is characterized by the spontaneous and recurrent appearance of pruritic hives. The proposed primary endpoints were the UAS7 at Week 12 in EU and EU reference countries and the ISS7 in the US. Regardless of where a participant was from, all assessments were the same. The UAS7 score is a composite score containing both the HSS7 and the ISS7. This allowed a global assessment of the two key components of urticaria: hives and itch. […] The UAS is a validated PRO measure. […] The daily UAS scores range from 0 to 6 point/day. […] Patients were to complete the UAS using the e-diary. […] The following secondary endpoints were to be analyzed using the same approach as for the primary endpoint: • Change from baseline in UAS7 at Week 4 • Change from baseline in UAS7 at Week 12 (for US and US reference countries) • Change from baseline in ISS7 at Week 12 (except US and US reference countries) • Change from baseline in HSS7 at Week 12 The following responder secondary endpoints were to be analyzed using the Cochran-Mantel-Haenszel test adjusted by region: • Proportion of participants with UAS7<6 at Week 12 • Proportion of participants with UAS7=0 at Week 12 Participants who received selected prohibited medications and/or rescue medications were to be considered as non-responders for time points after the medication usage. For other participants, all available data including those collected during the off-treatment period were to be used to determine the responder/non-responder status. Missing data were to be considered as non-responders.

CC(C)(C=C(C#N)C(=O)N1CCC[C@@H](n2nc(-c3ccc(Oc4ccccc4)cc3F)c3c(N)ncnc32)C1)N1CCN(C2COC2)CC1 [rilzabrutinib, (R)-2-[3-[4-amino-3-(2-fluoro-4-phenoxy-phenyl)pyrazolo[3,4-d]pyrimidin-1-yl]piperidine-1-carbonyl]-4-methyl-4-[4-(oxetan-3-yl)piperazin-1-yl]pent-2-enenitrile]
Responder n (%), UAS7 ≤6 (400 mg QPM, Week 12): 2 (5.3) n (%)
Imputed non-responder n (%), UAS7 = 0 (400 mg TID, Week 1): 0 n (%)
Imputed non-responder n (%), UAS7 ≤6 (400 mg TID, Week 1): 0 n (%)
Non-responder n (%), UAS7 = 0 (400 mg TID, Week 1): 40 (97.6) n (%)
Non-responder n (%), UAS7 ≤6 (400 mg TID, Week 1): 31 (75.6) n (%)
OR for rilzabrutinib vs. placebo, UAS7 = 0 (400 mg TID, Week 1): 1.084
RRD (%) for rilzabrutinib vs. placebo, UAS7 = 0 (400 mg TID, Week 1): 0.2 %
RRD (%) for rilzabrutinib vs. placebo, UAS7 ≤6 (400 mg TID, Week 1): 17.6 %
Responder n (%), UAS7 = 0 (400 mg TID, Week 1): 1 (2.4) n (%)
Responder n (%), UAS7 ≤6 (400 mg TID, Week 1): 10 (24.4) n (%)
Imputed non-responder n (%), UAS7 = 0 (400 mg TID, Week 2): 0 n (%)
Imputed non-responder n (%), UAS7 ≤6 (400 mg TID, Week 2): 0 n (%)
Non-responder n (%), UAS7 = 0 (400 mg TID, Week 2): 35 (85.4) n (%)
Non-responder n (%), UAS7 ≤6 (400 mg TID, Week 2): 30 (73.2) n (%)
OR for rilzabrutinib vs. placebo, UAS7 = 0 (400 mg TID, Week 2): 6.522
OR for rilzabrutinib vs. placebo, UAS7 ≤6 (400 mg TID, Week 2): 6.049
RRD (%) for rilzabrutinib vs. placebo, UAS7 = 0 (400 mg TID, Week 2): 11.0 %
RRD (%) for rilzabrutinib vs. placebo, UAS7 ≤6 (400 mg TID, Week 2): 19.4 %
Responder n (%), UAS7 = 0 (400 mg TID, Week 2): 6 (14.6) n (%)
Responder n (%), UAS7 ≤6 (400 mg TID, Week 2): 11 (26.8) n (%)
Imputed non-responder n (%), UAS7 = 0 (400 mg TID, Week 3): 0 n (%)
Imputed non-responder n (%), UAS7 ≤6 (400 mg TID, Week 3): 0 n (%)
Non-responder n (%), UAS7 = 0 (400 mg TID, Week 3): 37 (90.2) n (%)
Non-responder n (%), UAS7 ≤6 (400 mg TID, Week 3): 30 (73.2) n (%)
OR for rilzabrutinib vs. placebo, UAS7 = 0 (400 mg TID, Week 3): 4.480
OR for rilzabrutinib vs. placebo, UAS7 ≤6 (400 mg TID, Week 3): 3.055
RRD (%) for rilzabrutinib vs. placebo, UAS7 = 0 (400 mg TID, Week 3): 6.9 %
RRD (%) for rilzabrutinib vs. placebo, UAS7 ≤6 (400 mg TID, Week 3): 14.9 %
Responder n (%), UAS7 = 0 (400 mg TID, Week 3): 4 (9.8) n (%)
Responder n (%), UAS7 ≤6 (400 mg TID, Week 3): 11 (26.8) n (%)
Imputed non-responder n (%), UAS7 = 0 (400 mg TID, Week 4): 3 (7.3) n (%)
Imputed non-responder n (%), UAS7 ≤6 (400 mg TID, Week 4): 3 (7.3) n (%)
Non-responder n (%), UAS7 = 0 (400 mg TID, Week 4): 37 (90.2) n (%)
Non-responder n (%), UAS7 ≤6 (400 mg TID, Week 4): 34 (82.9) n (%)
OR for rilzabrutinib vs. placebo, UAS7 = 0 (400 mg TID, Week 4): 1.867
OR for rilzabrutinib vs. placebo, UAS7 ≤6 (400 mg TID, Week 4): 1.217
RRD (%) for rilzabrutinib vs. placebo, UAS7 = 0 (400 mg TID, Week 4): 4.0 %
RRD (%) for rilzabrutinib vs. placebo, UAS7 ≤6 (400 mg TID, Week 4): 2.4 %
Responder n (%), UAS7 = 0 (400 mg TID, Week 4): 4 (9.8) n (%)
Responder n (%), UAS7 ≤6 (400 mg TID, Week 4): 7 (17.1) n (%)
Imputed non-responder n (%), UAS7 = 0 (400 mg TID, Week 5): 3 (7.3) n (%)
Imputed non-responder n (%), UAS7 ≤6 (400 mg TID, Week 5): 3 (7.3) n (%)
Non-responder n (%), UAS7 = 0 (400 mg TID, Week 5): 34 (82.9) n (%)
Non-responder n (%), UAS7 ≤6 (400 mg TID, Week 5): 27 (65.9) n (%)
OR for rilzabrutinib vs. placebo, UAS7 = 0 (400 mg TID, Week 5): 7.606
OR for rilzabrutinib vs. placebo, UAS7 ≤6 (400 mg TID, Week 5): 8.858
RRD (%) for rilzabrutinib vs. placebo, UAS7 = 0 (400 mg TID, Week 5): 13.2 %
RRD (%) for rilzabrutinib vs. placebo, UAS7 ≤6 (400 mg TID, Week 5): 26.0 %
Responder n (%), UAS7 = 0 (400 mg TID, Week 5): 7 (17.1) n (%)
Responder n (%), UAS7 ≤6 (400 mg TID, Week 5): 14 (34.1) n (%)
Imputed non-responder n (%), UAS7 = 0 (400 mg TID, Week 6): 5 (12.2) n (%)
Imputed non-responder n (%), UAS7 ≤6 (400 mg TID, Week 6): 5 (12.2) n (%)
Non-responder n (%), UAS7 = 0 (400 mg TID, Week 6): 32 (78.0) n (%)
Non-responder n (%), UAS7 ≤6 (400 mg TID, Week 6): 28 (68.3) n (%)
OR for rilzabrutinib vs. placebo, UAS7 = 0 (400 mg TID, Week 6): 9.649
OR for rilzabrutinib vs. placebo, UAS7 ≤6 (400 mg TID, Week 6): 2.273
RRD (%) for rilzabrutinib vs. placebo, UAS7 = 0 (400 mg TID, Week 6): 17.2 %
RRD (%) for rilzabrutinib vs. placebo, UAS7 ≤6 (400 mg TID, Week 6): 14.2 %
Responder n (%), UAS7 = 0 (400 mg TID, Week 6): 9 (22.0) n (%)
Responder n (%), UAS7 ≤6 (400 mg TID, Week 6): 13 (31.7) n (%)
Imputed non-responder n (%), UAS7 = 0 (400 mg TID, Week 7): 6 (14.6) n (%)
Imputed non-responder n (%), UAS7 ≤6 (400 mg TID, Week 7): 6 (14.6) n (%)
Non-responder n (%), UAS7 = 0 (400 mg TID, Week 7): 37 (90.2) n (%)
Non-responder n (%), UAS7 ≤6 (400 mg TID, Week 7): 30 (73.2) n (%)
OR for rilzabrutinib vs. placebo, UAS7 = 0 (400 mg TID, Week 7): 4.480
OR for rilzabrutinib vs. placebo, UAS7 ≤6 (400 mg TID, Week 7): 3.247
